The term IC50 denotes the midpoint of a concentration-inhibition curve.

Structures are written as SMILES. Where a name gives a salt, the structure may show the parent alone.

The subject of the first experiment is Plasmodium falciparum: 3D7 strain. The experiment can be described thus: P. falciparum 3D7 asexual blood stage assay (SYBR green readout). The class given is cell-based. Particulars: Plasmodium falciparum, 3D7, Erythrocyte, 72 h, P. falciparum 3D7 in human erythrocytes, 72 h incubation, SYBR green fluorescence. In a few lines:
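3D7-infected erythrocytes (5% haematocrit, 0.5% parasitaemia) were exposed 72 h at 37 °C under 1% O2/3% CO2 to a 20-point titration (50,000-15 nM final, 0.5% DMSO). Parasite DNA was read by SYBR green fluorescence after overnight lysis. Percent inhibition was set against mefloquine and DMSO, and EC50 came from a biphasic two-site fit.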
Compound `C[C@H]1C[C@@H](N2C(=N)N[C@](C)(c3cccc(-c4cn(-c5cc(F)c(F)cc5F)nn4)c3Cl)CC2=O)CCO1` [Example 109, (6S)-6-{2-Chloro-3-[1-(2,4,5-trifluorophenyl)-1,2,3-triazol-4-yl]-phenyl}-2-imino-6-methyl-3-[(2S,4S)-2-methyltetrahydropyran-4-yl]hexahydropyrimidin-4-one hydrochloride] showed a half-maximal inhibitory concentration (IC50) of 171 nM.

For `C[C@H]1C[C@@H](N2C(=N)N[C@](C)(c3cccc(-c4cn(CC(F)(F)F)nn4)c3Cl)CC2=O)CCO1` [Example 110, (6S)-6-{2-Chloro-3-[1-(2,2,2-trifluoroethyl)-1,2,3-triazol-4-yl]-phenyl}-2-imino-6-methyl-3-[(2S,4S)-2-methyltetrahydropyran-4-yl]hexahydropyrimidin-4-one hydrochloride], it took 13 nM to reach half-maximal inhibition (IC50).

For `C[C@H]1C[C@@H](N2C(=N)N[C@](C)(c3cccc(-c4cn(-c5cccc(F)c5)nn4)c3Cl)CC2=O)CCO1` [Example 111, (6S)-6-{2-Chloro-3-[1-(3-fluoro-phenyl)-1,2,3-triazol-4-yl]phenyl}-2-imino-6-methyl-3-[(2S,4S)-2-methyltetrahydropyran-4-yl]-hexahydropyrimidin-4-one hydrochloride], the IC50 worked out at 66 nM.

In turn, `C[C@H]1C[C@@H](N2C(=N)N[C@](C)(c3cccc(-c4cn(CCN(C)C)nn4)c3Cl)CC2=O)CCO1` [Example 114, (6S)-6-(2-Chloro-3-{1-[2-(dimethylamino)ethyl]-1,2,3-triazol-4-yl}phenyl)-2-imino-6-methyl-3-[(2S,4S)-2-methyl-tetrahydropyran-4-yl]hexahydro-pyrimidin-4-one trifluoroacetic acid salt] showed an IC50 of 938 nM.

`C[C@H]1C[C@@H](N2C(=N)N[C@](C)(c3cccc(-c4cn([C@@H](C)c5cccnc5)nn4)c3Cl)CC2=O)CCO1` [Example 115, (6S)-6-(2-Chloro-3-{1-[(1S)-1-(pyridin-3-yl)ethyl]-1,2,3-triazol-4-yl}phenyl)-2-imino-6-methyl-3-[(2S,4S)-2-methyltetrahydropyran-4-yl]hexahydropyrimidin-4-one trifluoroacetic acid salt] displayed an IC50 of 210 nM.

Compound `C[C@H]1C[C@@H](N2C(=N)N[C@](C)(c3cccc(-c4cn(CC5CC(F)(F)C5)nn4)c3Cl)CC2=O)CCO1` [Example 116, (6S)-6-(2-Chloro-3-{1-[(3,3-difluorocyclobutyl)methyl]-1,2,3-triazol-4-yl}phenyl)-2-imino-6-methyl-3-[(2S,4S)-2-methyl-tetrahydropyran-4-yl]hexahydro-pyrimidin-4-one trifluoroacetic acid salt] gave an IC50 of 208 nM.

The compound `C[C@H]1C[C@@H](N2C(=N)N[C@](C)(c3cccc(-c4cn(Cc5cccnc5)nn4)c3Cl)CC2=O)CCO1` [Example 117, (6S)-6-{2-Chloro-3-[1-(pyridin-3-ylmethyl)-1,2,3-triazol-4-yl]-phenyl}-2-imino-6-methyl-3-[(2S,4S)-2-methyltetrahydropyran-4-yl]hexahydropyrimidin-4-one trifluoroacetic acid salt] displayed an IC50 of 371 nM.

`C[C@H]1C[C@@H](N2C(=N)N[C@](C)(c3cccc(-c4cn(CCN5CCCC5)nn4)c3Cl)CC2=O)CCO1` [Example 118, (6S)-6-(2-Chloro-3-{1-[2-(pyrrolidin-1-yl)ethyl]-1,2,3-triazol-4-yl}phenyl)-2-imino-6-methyl-3-[(2S,4S)-2-methyl-tetrahydropyran-4-yl]hexahydro-pyrimidin-4-one trifluoroacetic acid salt] registered an IC50 of 1010 nM.

As to `C[C@H]1C[C@@H](N2C(=N)N[C@](C)(c3cccc(-c4cn(-c5ccncc5)nn4)c3Cl)CC2=O)CCO1` [Example 119, (6S)-6-{2-Chloro-3-[1-(pyridin-4-yl)-1,2,3-triazol-4-yl]phenyl}-2-imino-6-methyl-3-[(2S,4S)-2-methyltetrahydropyran-4-yl]-hexahydropyrimidin-4-one trifluoroacetic acid salt], inhibition was half-maximal at 296 nM (IC50).

`C[C@H]1C[C@@H](N2C(=N)N[C@](C)(c3cccc(-c4cn(Cc5ccncc5)nn4)c3Cl)CC2=O)CCO1` [Example 120, (6S)-6-{2-Chloro-3-[1-(pyridin-4-ylmethyl)-1,2,3-triazol-4-yl]-phenyl}-2-imino-6-methyl-3-[(2S,4S)-2-methyltetrahydropyran-4-yl]hexahydropyrimidin-4-one trifluoroacetic acid salt] returned an IC50 of 507 nM.

Take `C=C(c1ccccc1)n1cc(-c2cccc([C@]3(C)CC(=O)N([C@H]4CCO[C@@H](C)C4)C(=N)N3)c2Cl)nn1` [Example 121, (6S)-6-{2-Chloro-3-[1-(1-phenyl-vinyl)-1,2,3-triazol-4-yl]phenyl}-2-imino-6-methyl-3-[(2S,4S)-2-methyltetrahydropyran-4-yl]-hexahydropyrimidin-4-one trifluoroacetic acid salt]: the IC50 is 185 nM.

As for `C[C@H]1C[C@@H](N2C(=N)N[C@](C)(c3cccc(-c4cn(C5CCC5)nn4)c3Cl)CC2=O)CCO1` [Example 122, (6S)-6-[2-Chloro-3-(1-cyclobutyl-1,2,3-triazol-4-yl)phenyl]-2-imino-6-methyl-3-[(2S,4S)-2-methyl-tetrahydropyran-4-yl]hexahydro-pyrimidin-4-one trifluoroacetic acid salt], inhibition was half-maximal at 101 nM (IC50).

As to `COCCn1cc(-c2cccc([C@]3(C)CC(=O)N([C@H]4CCO[C@@H](C)C4)C(=N)N3)c2Cl)nn1` [Example 123, (6S)-6-{2-Chloro-3-[1-(2-methoxy-ethyl)-1,2,3-triazol-4-yl]phenyl}-2-imino-6-methyl-3-[(2S,4S)-2-methyltetrahydropyran-4-yl]-hexahydropyrimidin-4-one trifluoroacetic acid salt], the midpoint of inhibition, the IC50, lay at 542 nM.

On to `C[C@H]1C[C@@H](N2C(=N)N[C@](C)(c3cccc(-c4cn(Cc5ccccc5)nn4)c3Cl)CC2=O)CCO1` [Example 124, (6S)-6-[3-(1-Benzyl-1,2,3-triazol-4-yl)-2-chlorophenyl]-2-imino-6-methyl-3-[(2S,4S)-2-methyl-tetrahydropyran-4-yl]hexahydro-pyrimidin-4-one trifluoroacetic acid salt], for which inhibition was half-maximal at 216 nM (IC50).

`CC(n1cc(-c2cccc([C@]3(C)CC(=O)N([C@H]4CCO[C@@H](C)C4)C(=N)N3)c2Cl)nn1)C12CC(CO1)C2` (stereo partly drawn) [Example 125, (6S)-6-(2-Chloro-3-{1-[1-(2-oxa-bicyclo[2.1.1]hexan-1-yl)ethyl]-1,2,3-triazol-4-yl}phenyl)-2-imino-6-methyl-3-[(2S,4S)-2-methyl-tetrahydropyran-4-yl]hexahydro-pyrimidin-4-one trifluoroacetic acid salt] gave an IC50 of 220 nM.

In the case of `C[C@H]1C[C@@H](N2C(=N)N[C@](C)(c3cccc(-c4cn(-c5ccccc5)nn4)c3Cl)CC2=O)CCO1` [Example 126, (6S)-6-[2-Chloro-3-(1-phenyl-1,2,3-triazol-4-yl)phenyl]-2-imino-6-methyl-3-[(2S,4S)-2-methyl-tetrahydropyran-4-yl]hexahydro-pyrimidin-4-one trifluoroacetic acid salt], the 50% inhibitory concentration (IC50) was found to be 5 nM.

With `CCCCn1cc(-c2cccc([C@]3(C)CC(=O)N([C@H]4CCO[C@@H](C)C4)C(=N)N3)c2Cl)nn1` [Example 127, (6S)-6-[3-(1-Butyl-1,2,3-triazol-4-yl)-2-chlorophenyl]-2-imino-6-methyl-3-[(2S,4S)-2-methyl-tetrahydropyran-4-yl]hexahydro-pyrimidin-4-one trifluoroacetic acid salt], half-maximal inhibition (IC50) required 100 nM.

Regarding `C[C@H](c1cccnc1)n1cc(-c2cccc([C@]3(C)CC(=O)N([C@H]4CCO[C@@H](C)C4)C(=N)N3)c2Cl)nn1` [Example 128, (6S)-6-(2-Chloro-3-{1-[(1R)-1-(pyridin-3-yl)ethyl]-1,2,3-triazol-4-yl}phenyl)-2-imino-6-methyl-3-[(2S,4S)-2-methyltetrahydropyran-4-yl]hexahydropyrimidin-4-one trifluoroacetic acid salt], it took 112 nM to reach half-maximal inhibition (IC50).

Take `C[C@H]1C[C@@H](N2C(=N)N[C@](C)(c3cccc(-c4cn(C5CCCNCC5)nn4)c3Cl)CC2=O)CCO1` (stereo partly drawn) [Example 129, (6S)-6-{3-[1-(Azepan-4-yl)-1,2,3-triazol-4-yl]-2-chlorophenyl}-2-imino-6-methyl-3-[(2S,4S)-2-methyltetrahydropyran-4-yl]-hexahydropyrimidin-4-one trifluoroacetic acid salt]: half-maximal inhibition (IC50) required 11900 nM.

The experiment is the same for the next values; noted with them: Plasmodium falciparum, Erythrocyte; P. falciparum 3D7 in human erythrocytes, 72 h incubation, SYBR green fluorescence; read-out: IC50.
Take `CN1CCC(N2C(=N)N[C@](C)(c3cccc(-c4ccc(F)cc4F)c3Cl)CC2=O)CC1` [Example 93, (6S)-6-[2-Chloro-3-(2,4-difluoro-phenyl)phenyl]-2-imino-6-methyl-3-(1-methylpiperidin-4-yl)-hexahydropyrimidin-4-one]: the IC50 was 112 nM.
